In US20110124674A1, “5/5-OR 5/6-MEMBERED CONDENSED RING CYCLOALKYLAMINE DERIVATIVE” (priority 2008, published 2011):

molecular target: T1, human MCH-1R (Homo sapiens, UniProt Q99705); assay: MCH binding inhibition test ([125I]MCH binding to membranes of MCH-1R expressing CHO-K1 cells); conditions: membranes of CHO-K1 cells expressing human MCH-1R; 50 pM [125I]MCH; 25° C., 1 hour; pH 7.4; read-out: IC50 (50% inhibition concentration of test compound to the specific [125I]MCH binding)
T1 construct: expressed in transfected cells; host or cells: CHO-K1 (American Type Culture Collection), vector pEF/myc/cyto
Description: Pharmacological Test Example: MCH Binding Inhibition Test
A human MCH-1R encoding cDNA sequence [FEBS Letters, Vol. 398, 253 (1996); Biochimica et Biophisica Acta, Vol. 1401, 216 (1998)] was cloned to a plasmid vector pEF/myc/cyto (by Invitrogen Corporation). The obtained expression vector was transfected to host cells CHO-K1 (American Type Culture Collection) using Lipofectamine Plus Reagent (by Life Technology Inc.) to provide MCH-1R expression cells.
Membrane samples prepared from the MCH-1R expression cells were incubated with each test compound and 50 pM of [^125I]MCH (by NEN Co.), in an assay buffer (50 mM Tris buffer comprising 10 mM magnesium chloride, 2 mM ethylenediamine tetraacetate, 0.01% bacitracin and 0.2% bovine serum albumin; pH 7.4) at 25° C. for an hour, followed by filtration through a glass filter GF/C (by Wattman Co.). After washing the glass filter with 50 mM Tris buffer (pH 7.4) comprising 10 mM magnesium chloride, 2 mM ethylenediamine tetraacettic acid and 0.04% Tween-20, the radio activity on the glass filter was measured. The non-specific binding was measured in the presence of 1 μM human MCH, and the 50% inhibition concentration (IC50 value) of each test compound to the specific [^125I]MCH binding was determined.

T1 sequence (Q99705 whole entry): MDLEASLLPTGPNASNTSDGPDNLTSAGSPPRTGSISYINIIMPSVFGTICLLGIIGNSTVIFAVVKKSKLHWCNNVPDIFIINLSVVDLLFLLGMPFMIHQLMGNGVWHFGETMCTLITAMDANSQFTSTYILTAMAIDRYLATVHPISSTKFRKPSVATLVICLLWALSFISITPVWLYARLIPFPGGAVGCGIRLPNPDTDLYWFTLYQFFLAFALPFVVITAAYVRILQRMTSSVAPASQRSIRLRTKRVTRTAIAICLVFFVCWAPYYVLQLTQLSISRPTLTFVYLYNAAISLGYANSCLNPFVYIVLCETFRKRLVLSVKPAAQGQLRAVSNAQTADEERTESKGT

First: COc1cc(C(=O)NC2CCN(Cc3c(C)n(C)c4ccccc34)CC2)cc(OC)c1C [Example 2-5, N-{1-[(1,2-dimethyl-1H-indol-3-yl)methyl]-4-piperidinyl}-4-methyl-3,5-bis(methyloxy)benzamide]
Second: COc1cc(C(=O)NC2CCN(Cc3cn(C)c4ccccc34)CC2)cc(OC)c1C [Example 2-2, 4-methyl-N-{1-[(1-methyl-1-H-indol-3-yl)methyl]-4-piperidinyl}-3,5-bis(methyloxy)benzamide]
The IC50 of the first is 2-fold higher: 26 nM for the first, 13 nM for the second.

First: COc1cc(C(=O)NC2CCN(Cc3cc4sccc4n3C)CC2)cc(OC)c1C [Example 2-25, 4-methyl-3,5-bis(methyloxy)-N-{1-[(4-methyl-4H-thieno[3,2-b]pyrrol-5-yl)methyl]-4-piperidinyl]benzamide]
Second: COc1cc(C(=O)NC2CCN(Cc3[nH]c4ccccc4c3C)CC2)cc(OC)c1C [Example 2-18, 4-methyl-N-{1-[(3-methyl-1H-indol-2-yl)methyl]-4-piperidinyl}-3,5-bis(methyloxy)benzamide]
The IC50 of the first is 2.4-fold higher: 16 nM for the first, 6.8 nM for the second. The second is the more potent here.

Work on `C#CCn1cc(CN2CCC(NC(=O)c3cc(OC)c(C)c(OC)c3)CC2)c2ccccc21` [Example 2-10, 4-methyl-3,5-bis(methyloxy)-N-(1-{[1-(2-propyn-1-yl)-1H-indol-3-yl]methyl}-4-piperidinyl)benzamide] yielded an IC50 of 22 nM.
